For 29 compounds, IC50 results are on record in US10508085B2, “Compounds and methods for IDO and TDO modulation, and indications therefor” (Plexxikon Inc., priority 2016, dated 2019).

The target in test [1] is T1, Human Indoleamine 2,3-dioxygenase (IDO) (Homo sapiens, UniProt P14902).
T1 construct: His tag (N); made in house; host or cells: E. coli
Description: Human IDO enzymatic assay (kynurenine level). It is filed as biochemical. The settings on record: 6 nM IDO, 10 μM L-Trp; geometric mean; read-out: IDO1 GMean: IC50 (μM) (Biochemical Assay). The protocol: (§1) Human Indoleamine 2,3-dioxygenase (IDO) and Tryptophan 2,3-dioxygenase (TDO) enzymatic assay
(§2) Human IDO or TDO with N-terminal His tag is purified in E. coli. The IDO enzymatic assay is performed using 6 nM IDO and 10 μM L-Trp in the presence of 10 mM ascorbic acid, 5 μM methylene blue, 100 nM catalase and 0.01% Tween 20 in 50 mM sodium phosphate buffer (pH 6.5). 19 μL of above reaction mixture is added to wells of 384 well reaction plate containing […] of various concentrations of test compound or DMSO vehicle and incubated for 20 minutes at room temperature. The TDO enzymatic reaction assay is performed using 1 nM TDO and 350 μM L-Trp in the presence of 10 mM ascorbic acid, 0.4 μM methylene blue, 100 nM catalase and 0.01% Tween 20 in 50 mM sodium phosphate buffer (pH 6.5). 19 μL of above reaction mixture is added to wells of 384 well reaction plate containing 1 μL of various concentrations of test compound or DMSO vehicle and incubated for 70 minutes at room temperature. 16 wells containing all the components of reaction mixture and 5% DMSO serve as high control. 16 well containing all the components except enzyme of reaction mixture and 5% DMSO serves as low control. Both IDO and TDO enzymatic reactions are stopped by addition of […] of 30% TCA and incubated 30 minutes at 50° C. to hydrolyze N-formylkynurenine produced by IDO or TDO to kynurenine. Upon measuring the kynurenine level, the percentage inhibition is calculated at individual concentrations relative to high and low controls. The data is analyzed by using nonlinear regression to generate IC50 values.

In test [2] the target is T2, Human Tryptophan 2,3-dioxygenase (TDO) (Homo sapiens, UniProt P48775).
T2 construct: His tag (N); made in house; host or cells: E. coli
T2 sequence (P48775 whole entry): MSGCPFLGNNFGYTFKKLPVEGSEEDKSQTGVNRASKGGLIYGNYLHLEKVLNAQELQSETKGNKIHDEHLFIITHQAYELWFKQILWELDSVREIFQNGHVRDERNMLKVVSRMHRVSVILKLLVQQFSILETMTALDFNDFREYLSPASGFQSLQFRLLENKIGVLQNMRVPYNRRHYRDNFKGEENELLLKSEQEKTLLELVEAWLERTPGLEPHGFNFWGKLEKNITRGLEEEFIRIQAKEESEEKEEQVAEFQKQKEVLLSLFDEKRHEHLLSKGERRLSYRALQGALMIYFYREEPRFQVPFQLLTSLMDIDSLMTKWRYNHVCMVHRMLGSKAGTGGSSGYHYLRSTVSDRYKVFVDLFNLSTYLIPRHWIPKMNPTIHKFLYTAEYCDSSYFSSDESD
The test is described as follows: Human TDO enzymatic assay (kynurenine level). The conditions noted are these: 1 nM TDO, 350 μM L-Trp; geometric mean; read-out: TDO GMean: IC50 (μM) (Biochemical Assay). It is filed as biochemical. The protocol:
as §1, §2

T1 sequence (P14902 whole entry): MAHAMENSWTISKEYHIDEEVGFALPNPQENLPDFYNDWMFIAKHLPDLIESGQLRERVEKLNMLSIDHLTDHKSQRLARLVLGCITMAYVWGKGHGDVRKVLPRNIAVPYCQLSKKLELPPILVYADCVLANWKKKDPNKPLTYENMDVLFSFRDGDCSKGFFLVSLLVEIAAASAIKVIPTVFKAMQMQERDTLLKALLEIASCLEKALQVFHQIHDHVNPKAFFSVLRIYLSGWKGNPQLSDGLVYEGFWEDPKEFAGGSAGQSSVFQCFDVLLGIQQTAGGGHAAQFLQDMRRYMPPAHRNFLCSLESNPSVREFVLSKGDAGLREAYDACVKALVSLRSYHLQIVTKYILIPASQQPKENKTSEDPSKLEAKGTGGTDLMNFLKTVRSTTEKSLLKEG

As for `OC(c1ccc(Cl)c2cn[nH]c12)C1CCCCC1` (stereo not drawn) [Compound P-0003, (4-chloro-1H-indazol-7-yl)(cyclohexyl)methanol], the IC50 in test [1] and in test [2] was 0.0001 to 10 µM each time.
Regarding `CCCOc1ccc(C(O)c2cccc3cncn23)cc1` (stereo not drawn) [Compound P-0064, imidazo[1,5-a]pyridin-5-yl(4-propoxyphenyl)methanol], the IC50 – broadly, the concentration needed to halve the response being measured – in test [1] lay in the range of 0.0001 to 10 µM; in test [2], 10 to 100 µM.
In the same order, the values of `OC(c1ccc(OC(F)(F)F)cc1)c1cccc2cncn12` (stereo not drawn) [Compound P-0065, imidazo[1,5-a]pyridin-5-yl(4-(trifluoromethoxy)phenyl)methanol] are 0.0001 to 10 µM and 10 to 100 µM.
In the same order, the values of `OC(c1ccccc1F)c1cccc2cncn12` (stereo not drawn) [Compound P-0066, (2-fluorophenyl)(imidazo[1,5-a]pyridin-5-yl)methanol] are 0.0001 to 10 µM and 0.0001 to 10 µM.
In the same order, the values of `OC(c1ccccc1C(F)(F)F)c1cccc2cncn12` (stereo not drawn) [Compound P-0067, imidazo[1,5-a]pyridin-5-yl(2-(trifluoromethyl)phenyl)methanol] are 100 to 200 µM and 0.0001 to 10 µM.
For the compound `OC(c1cccc(F)c1)c1cccc2cncn12` (stereo not drawn) [Compound P-0068, (3-fluorophenyl)(imidazo[1,5-a]pyridin-5-yl)methanol], the IC50 in test [1] and in test [2] was 0.0001 to 10 µM throughout.
Regarding `OC(c1cccc(N2CCOCC2)c1)c1cccc2cncn12` (stereo not drawn) [Compound P-0069, imidazo[1,5-a]pyridin-5-yl(3-morpholinophenyl)methanol], the IC50 in test [1] and in test [2] was 10 to 100 µM in each case.
For `OC(c1cccc(-n2ccnc2)c1)c1cccc2cncn12` (stereo not drawn) [Compound P-0070, (3-(1H-imidazol-1-yl)phenyl)(imidazo[1,5-a]pyridin-5-yl)methanol], the IC50 in test [1] and in test [2] was 100 to 200 µM throughout.
For the compound `OC(c1cccc(OCc2ccccc2)c1)c1cccc2cncn12` (stereo not drawn) [Compound P-0071], the figures for the IC50 in test [1] and in test [2] were 0.0001 to 10 µM and 10 to 100 µM, respectively.
In the same order, the values of `CN(C)c1cccc(C(O)c2cccc3cncn23)c1` (stereo not drawn) [Compound P-0072, (3-(dimethylamino)phenyl)(imidazo[1,5-a]pyridin-5-yl)methanol] are 10 to 100 µM and 10 to 100 µM.
In the same order, the values of `OC(c1cccc(N2CCCCC2)c1)c1cccc2cncn12` (stereo not drawn) [Compound P-0073, imidazo[1,5-a]pyridin-5-yl(3-(piperidin-1-yl)phenyl)methanol] are 0.0001 to 10 µM and 10 to 100 µM.
As to `OC(c1cccc2cncn12)C1CCOCC1` (stereo not drawn) [Compound P-0075, imidazo[1,5-a]pyridin-5-yl(tetrahydro-2H-pyran-4-yl)methanol], the IC50 in test [1] and in test [2] was 0.0001 to 10 µM in each case.
Turning to `OC(c1ccccc1Cl)c1cccc2cncn12` (stereo not drawn) [Compound P-0077, (2-chlorophenyl)(imidazo[1,5-a]pyridin-5-yl)methanol], the IC50 in test [1] is over 200 µM; in test [2] it was 10 to 100 µM.
In the same order, the values of `OC(c1cccc(C(F)(F)F)c1)c1cccc2cncn12` (stereo not drawn) [Compound P-0078, imidazo[1,5-a]pyridin-5-yl(3-(trifluoromethyl)phenyl)methanol] are 0.0001 to 10 µM and 10 to 100 µM.
In the case of `CC(C)(C1CCN(C(=O)CN2CCS(=O)(=O)CC2)CC1)[C@H](O)c1cc(Cl)cc2cn[nH]c12` [Compound P-0500, (S)-1-(4-(1-(5-chloro-1H-indazol-7-yl)-1-hydroxy-2-methylpropan-2-yl)piperidin-1-yl)-2-(1,1-dioxidothiomorpholino) ethan-1-one], the IC50 in test [1] is 0.0001 to 10 µM.
Turning to `O=C(Cc1ccc(Cl)c(F)c1)N1CCC(C(F)(F)[C@H](O)c2cc(Cl)cc3cn[nH]c23)CC1` [Compound P-0571, (R)-1-(4-(2-(5-chloro-1H-indazol-7-yl)-1,1-difluoro-2-hydroxyethyl)piperidin-1-yl)-2-(4-chloro-3-fluorophenyl)ethan-1-one], the IC50 in test [1] and in test [2] was 0.0001 to 10 µM throughout.
As to `O=C(Cc1ccc(F)c(Cl)c1)N1CCC(C(F)(F)[C@H](O)c2cc(Cl)cc3cn[nH]c23)CC1` [Compound P-0572, (R)-1-(4-(2-(5-chloro-1H-indazol-7-yl)-1,1-difluoro-2-hydroxyethyl)piperidin-1-yl)-2-(3-chloro-4-fluorophenyl)ethan-1-one], the IC50 in test [1] and in test [2] was 0.0001 to 10 µM in each case.
As to `CC(C)(C1CCN(/C(N)=N/C#N)CC1)C(O)c1cc(Cl)cc2cn[nH]c12` (stereo not drawn) [Compound P-0573, (E)-4-(1-(5-chloro-1H-indazol-7-yl)-1-hydroxy-2-methylpropan-2-yl)-N′-cyanopiperidine-1-carboximidamide], the IC50 in test [1] and in test [2] was 0.0001 to 10 µM each time.
Regarding `CCC(=O)N1CCC(C(F)(F)[C@H](O)c2cc(Cl)cc3cn[nH]c23)CC1` [Compound P-0574, (R)-1-(4-(2-(5-chloro-1H-indazol-7-yl)-1,1-difluoro-2-hydroxyethyl)piperidin-1-yl)propan-1-one], the IC50 in test [1] and in test [2] was 0.0001 to 10 µM in each case.
For the compound `CNC(=O)N1CCC(C(F)(F)[C@H](O)c2cc(Cl)cc3cn[nH]c23)CC1` [Compound P-0575, (R)-4-(2-(5-chloro-1H-indazol-7-yl)-1,1-difluoro-2-hydroxyethyl)-N-methylpiperidine-1-carboxamide], the IC50 in test [1] and in test [2] was 0.0001 to 10 µM each time.
In the case of `O=C(Cc1ccnc(Cl)c1)N1CCC(C(F)(F)[C@H](O)c2cc(Cl)cc3cn[nH]c23)CC1` [Compound P-0576, (R)-1-(4-(2-(5-chloro-1H-indazol-7-yl)-1,1-difluoro-2-hydroxyethyl)piperidin-1-yl)-2-(2-chloropyridin-4-yl)ethan-1-one], the IC50 in test [1] and in test [2] was 0.0001 to 10 µM in each case.
Take `CCC(=O)N1CCC(C(F)(F)C(O)c2cc(Cl)cc3[nH]ncc23)CC1` (stereo not drawn) [Compound P-0577, 1-(4-(2-(6-chloro-1H-indazol-4-yl)-1,1-difluoro-2-hydroxyethyl)piperidin-1-yl) propan-1-one]: the IC50 in test [1] and in test [2] was 0.0001 to 10 µM throughout.
With `CNC(=O)N1CCC(C(F)(F)C(O)c2cc(Cl)cc3[nH]ncc23)CC1` (stereo not drawn) [Compound P-0578, 4-(2-(6-chloro-1H-indazol-4-yl)-1,1-difluoro-2-hydroxyethyl)-N-methylpiperidine-1-carboxamide], the IC50 in test [1] and in test [2] was 0.0001 to 10 µM each time.
For the compound `CC(C)(C1CCN(C(=O)NCS(C)(=O)=O)CC1)[C@H](O)c1cc(Cl)cc2cn[nH]c12` [Compound P-0579, (S)-4-(1-(5-chloro-1H-indazol-7-yl)-1-hydroxy-2-methylpropan-2-yl)-N-((methylsulfony)methyl)piperidine-1-carboxamide], the IC50 in test [1] and in test [2] was 0.0001 to 10 µM throughout.
Regarding `CC(C)(C1CCN(C(=O)NCCF)CC1)[C@H](O)c1cc(Cl)cc2cn[nH]c12` [Compound P-0580, (S)-4-(1-(5-chloro-1H-indazol-7-yl)-1-hydroxy-2-methylpropan-2-yl)-N-(2-fluoroethyl) piperidine-1-carboxamide], the IC50 in test [1] and in test [2] was 0.0001 to 10 µM throughout.
As to `CC(C)(C1CCN(C(=O)NCC(F)F)CC1)[C@H](O)c1cc(Cl)cc2cn[nH]c12` [Compound P-0581, (S)-4-(1-(5-chloro-1H-indazol-7-yl)-1-hydroxy-2-methylpropan-2-yl)-N-(2,2-difluoroethyl) piperidine-1-carboxamide], the IC50 in test [1] and in test [2] was 0.0001 to 10 µM throughout.
As for `CC(C)(C1CCN(C(=O)NCC2CCC2)CC1)[C@H](O)c1cc(Cl)cc2cn[nH]c12` [Compound P-0582, (S)-4-(1-(5-chloro-1H-indazol-7-yl)-1-hydroxy-2-methylpropan-2-yl)-N-(cyclobutylmethyl) piperidine-1-carboxamide], the half-inhibitory concentration (IC50) in test [1] and in test [2] was 0.0001 to 10 µM throughout.
Consider `CNC(=O)CNC(=O)N1CCC(C(C)(C)[C@H](O)c2cc(Cl)cc3cn[nH]c23)CC1` [Compound P-0583, (S)-4-(1-(5-chloro-1H-indazol-7-yl)-1-hydroxy-2-methylpropan-2-yl)-N-(2-(methylamino)-2-oxoethyl)piperidine-1-carboxamide], for which the IC50 in test [1] and in test [2] was 0.0001 to 10 µM throughout.
Turning to `CC(C)(C1CCN(C(=O)NCc2ccc(C#N)cc2)CC1)[C@H](O)c1cc(Cl)cc2cn[nH]c12` [Compound P-0584, (S)-4-(1-(5-chloro-1H-indazol-7-yl)-1-hydroxy-2-methylpropan-2-yl)-N-(4-cyanobenzyl) piperidine-1-carboxamide], the IC50 in test [1] and in test [2] was 0.0001 to 10 µM each time.
